Results as given in patent US8802597B2, “Herbicidal pyrimidines” (E I du Pont de Nemours and Company, priority 2003, dated 2014).
Like-named read-outs stand apart in the source and are kept apart here.

Assays:
Assay type in all cases: in vivo
[1] = system: cocklebur (Xanthium strumarium); assay: Test B pre/postemergence; details: Xanthium strumarium; for pest or weed control at 125 g/ha: 125 g ai/ha; for pest or weed control at 500 g/ha: 500 g ai/ha
How it was run: (§1)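 Pre: compound (non-phytotoxic solvent + surfactant) applied to freshly planted seeds. Post: same formulation sprayed on 2–18 cm plants, 1- to 4-leaf. Readout: visual control rating 0–100 vs controls, 13–15 d, greenhouse.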

[2] = system: wheat (Triticum aestivum); assay: Test B pre/postemergence; details: Triticum aestivum; for plant injury at 125 g/ha: 125 g ai/ha; for plant injury at 500 g/ha: 500 g ai/ha
How it was run: as §1

[3] = system: pigweed (Amaranthus retroflexus); assay: Test B pre/postemergence; details: Amaranthus retroflexus; for pest or weed control at 125 g/ha: 125 g ai/ha; for pest or weed control at 500 g/ha: 500 g ai/ha
How it was run: as §1

[4] = system: giant foxtail (Setaria faberii); assay: Test B pre/postemergence; details: Setaria faberi; for pest or weed control at 125 g/ha: 125 g ai/ha; for pest or weed control at 500 g/ha: 500 g ai/ha
How it was run: as §1

[5] = system: barnyardgrass (Echinochloa crus-galli); assay: Test B pre/postemergence; details: Echinochloa crus-galli; for pest or weed control at 125 g/ha: 125 g ai/ha; for pest or weed control at 500 g/ha: 500 g ai/ha
How it was run: as §1

[6] = system: velvetleaf (Abutilon theophrasti); assay: Test B pre/postemergence; details: Abutilon theophrasti; for pest or weed control at 125 g/ha: 125 g ai/ha; for pest or weed control at 500 g/ha: 500 g ai/ha
How it was run: as §1

[7] = system: Surinam grass (Brachiaria decumbens); assay: Test B pre/postemergence; details: Urochloa decumbens; for pest or weed control at 125 g/ha: 125 g ai/ha; for pest or weed control at 500 g/ha: 500 g ai/ha
How it was run: as §1

[8] = system: corn (Zea mays); assay: Test B pre/postemergence; details: Zea mays
How it was run: as §1

[9] = system: lambsquarters (Chenopodium album); assay: Test B pre/postemergence; details: Chenopodium album; for pest or weed control at 125 g/ha: 125 g ai/ha; for pest or weed control at 500 g/ha: 500 g ai/ha
How it was run: as §1

[10] = system: crabgrass (Digitaria sanguinalis); assay: Test B pre/postemergence; details: Digitaria sanguinalis; for pest or weed control at 125 g/ha: 125 g ai/ha; for pest or weed control at 500 g/ha: 500 g ai/ha
How it was run: as §1

[11] = system: morningglory (Ipomoea coccinea); assay: Test B pre/postemergence; details: Ipomoea; for pest or weed control at 125 g/ha: 125 g ai/ha; for pest or weed control at 500 g/ha: 500 g ai/ha
How it was run: as §1

[12] = system: barnyardgrass (Echinochloa crus-galli); assay: Test B flooded paddy test; details: Echinochloa crus-galli, Flood, 1000 g ai/ha; scale 0 (no effect) to 100 (complete control); read-out: Plant response rating, Barnyardgrass
How it was run: (§2)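 Plants were grown to the 2-leaf stage before treatment, then kept in a greenhouse for 13 to 15 days. Injury was rated visually against untreated controls on a 0 to 100 scale, where 0 is no effect and 100 is complete control.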

[13] = system: umbrella sedge (Cyperus difformis); assay: Test B flooded paddy test; details: Cyperus difformis, Flood, 1000 g ai/ha; scale 0 to 100; read-out: Plant response rating, Sedge, Umbrella
How it was run: as §2

[14] = system: rice (Oryza sativa); assay: Test B flooded paddy test; details: Oryza sativa, Flood, 1000 g ai/ha; scale 0 to 100; read-out: Plant response rating, Rice
How it was run: as §2

[15] = system: duck salad (Heteranthera limosa); assay: Test B flooded paddy test; details: Heteranthera limosa, Flood, 1000 g ai/ha; scale 0 to 100; read-out: Plant response rating, Ducksalad
How it was run: as §2

[16] = system: blackgrass (Alopecurus myosuroides); assay: Test B postemergence; details: Alopecurus myosuroides, post-emergence
How it was run: as §1

[17] = system: wild oat (Avena fatua); assay: Test B postemergence; details: Avena fatua, post-emergence
How it was run: as §1

[18] = pre-emergence, Preemergence, scale 0 to 100 (0 no effect, 100 complete control), read-out: Plant response rating, Wheat

Structure (SMILES): CCOC(=O)c1nc(C(C)(C)C)nc(N)c1Br [Compound 36]
- pest or weed control at 125 g/ha ([1]; post-emergence, Postemergence, scale 0 to 100 (0 no effect, 100 complete control), read-out: Cocklebur plant response rating): 20%
- pest or weed control at 500 g/ha ([1]; post-emergence, Postemergence, scale 0 to 100, read-out: Plant response rating, Cocklebur): 70%
- pest or weed control at 125 g/ha ([1]; pre-emergence, Preemergence, scale 0 to 100 (0 no effect, 100 complete control), read-out: Plant response rating, Cocklebur): 10%
- pest or weed control at 500 g/ha ([1]; pre-emergence, Preemergence, scale 0 to 100 (0 no effect, 100 complete control), read-out: Cocklebur plant response rating): 60%
- plant injury at 125 g/ha ([2]; post-emergence, Postemergence, scale 0 to 100 (0 no effect, 100 complete control), read-out: Wheat plant response rating): 0%
- plant injury at 500 g/ha ([2]; post-emergence, Postemergence, scale 0 to 100, read-out: Plant response rating, Wheat): 40%
- plant injury at 125 g/ha [2, 18]: 0%
- plant injury at 500 g/ha [2, 18]: 0%
- pest or weed control at 125 g/ha ([3]; post-emergence, Postemergence, scale 0 to 100 (0 no effect, 100 complete control), read-out: Pigweed plant response rating): 20%
- pest or weed control at 500 g/ha ([3]; post-emergence, Postemergence, scale 0 to 100, read-out: Plant response rating, Pigweed): 30%
- pest or weed control at 125 g/ha ([3]; pre-emergence, Preemergence, scale 0 to 100 (0 no effect, 100 complete control), read-out: Plant response rating, Pigweed): 0%
- pest or weed control at 500 g/ha ([3]; pre-emergence, Preemergence, scale 0 to 100 (0 no effect, 100 complete control), read-out: Pigweed plant response rating): 20%
- pest or weed control at 125 g/ha ([4]; post-emergence, Postemergence, scale 0 to 100 (0 no effect, 100 complete control), read-out: Foxtail, Giant plant response rating): 0%
- pest or weed control at 500 g/ha ([4]; post-emergence, Postemergence, scale 0 to 100, read-out: Plant response rating, Foxtail, Giant): 10%
- pest or weed control at 125 g/ha ([4]; pre-emergence, Preemergence, scale 0 to 100 (0 no effect, 100 complete control), read-out: Plant response rating, Foxtail, Giant): 0%
- pest or weed control at 500 g/ha ([4]; pre-emergence, Preemergence, scale 0 to 100 (0 no effect, 100 complete control), read-out: Foxtail, Giant plant response rating): 0%
- pest or weed control at 125 g/ha ([5]; post-emergence, Postemergence, scale 0 to 100 (0 no effect, 100 complete control), read-out: Barnyardgrass plant response rating): 0%
- pest or weed control at 500 g/ha ([5]; post-emergence, Postemergence, scale 0 to 100, read-out: Plant response rating, Barnyardgrass): 0%
- pest or weed control at 125 g/ha ([5]; pre-emergence, Preemergence, scale 0 to 100 (0 no effect, 100 complete control), read-out: Plant response rating, Barnyardgrass): 0%
- pest or weed control at 500 g/ha ([5]; pre-emergence, Preemergence, scale 0 to 100 (0 no effect, 100 complete control), read-out: Barnyardgrass plant response rating): 0%
- pest or weed control at 125 g/ha ([6]; post-emergence, Postemergence, scale 0 to 100 (0 no effect, 100 complete control), read-out: Velvetleaf plant response rating): 20%
- pest or weed control at 500 g/ha ([6]; post-emergence, Postemergence, scale 0 to 100, read-out: Plant response rating, Velvetleaf): 40%
- pest or weed control at 125 g/ha ([6]; pre-emergence, Preemergence, scale 0 to 100 (0 no effect, 100 complete control), read-out: Plant response rating, Velvetleaf): 10%
- pest or weed control at 500 g/ha ([6]; pre-emergence, Preemergence, scale 0 to 100 (0 no effect, 100 complete control), read-out: Velvetleaf plant response rating): 40%
- pest or weed control at 125 g/ha ([7]; post-emergence, Postemergence, scale 0 to 100 (0 no effect, 100 complete control), read-out: Surinam Grass plant response rating): 0%
- pest or weed control at 500 g/ha ([7]; post-emergence, Postemergence, scale 0 to 100, read-out: Plant response rating, Surinam Grass): 0%
- pest or weed control at 125 g/ha ([7]; pre-emergence, Preemergence, scale 0 to 100 (0 no effect, 100 complete control), read-out: Plant response rating, Surinam Grass): 0%
- pest or weed control at 500 g/ha ([7]; pre-emergence, Preemergence, scale 0 to 100 (0 no effect, 100 complete control), read-out: Surinam Grass plant response rating): 0%
- plant injury at 125 g/ha ([8]; post-emergence, Postemergence, 125 g ai/ha, scale 0 to 100 (0 no effect, 100 complete control), read-out: Corn plant response rating): 0%
- Corn plant response rating (crop injury, 0 = no effect, 100 = complete kill) at 500 g/ha ([8]; post-emergence, Postemergence, 500 g ai/ha, scale 0 to 100): 0%
- Corn plant response rating (crop injury, 0 = no effect, 100 = complete kill) at 125 g/ha ([8]; pre-emergence, Preemergence, 125 g ai/ha, scale 0 to 100 (0 no effect, 100 complete control)): 0%
- plant injury at 500 g/ha ([8]; pre-emergence, Preemergence, 500 g ai/ha, scale 0 to 100 (0 no effect, 100 complete control), read-out: Corn plant response rating): 0%
- pest or weed control at 125 g/ha ([9]; post-emergence, Postemergence, scale 0 to 100 (0 no effect, 100 complete control), read-out: Lambsquarters plant response rating): 40%
- pest or weed control at 500 g/ha ([9]; post-emergence, Postemergence, scale 0 to 100, read-out: Plant response rating, Lambsquarters): 50%
- pest or weed control at 125 g/ha ([9]; pre-emergence, Preemergence, scale 0 to 100 (0 no effect, 100 complete control), read-out: Plant response rating, Lambsquarters): 0%
- pest or weed control at 500 g/ha ([9]; pre-emergence, Preemergence, scale 0 to 100 (0 no effect, 100 complete control), read-out: Lambsquarters plant response rating): 40%
- pest or weed control at 125 g/ha ([10]; post-emergence, Postemergence, scale 0 to 100 (0 no effect, 100 complete control), read-out: Crabgrass plant response rating): 0%
- pest or weed control at 500 g/ha ([10]; post-emergence, Postemergence, scale 0 to 100, read-out: Plant response rating, Crabgrass): 0%
- pest or weed control at 125 g/ha ([10]; pre-emergence, Preemergence, scale 0 to 100 (0 no effect, 100 complete control), read-out: Plant response rating, Crabgrass): 0%
- pest or weed control at 500 g/ha ([10]; pre-emergence, Preemergence, scale 0 to 100 (0 no effect, 100 complete control), read-out: Crabgrass plant response rating): 0%
- pest or weed control at 125 g/ha ([11]; post-emergence, Postemergence, scale 0 to 100 (0 no effect, 100 complete control), read-out: Morningglory plant response rating): 10%
- pest or weed control at 500 g/ha ([11]; post-emergence, Postemergence, scale 0 to 100, read-out: Plant response rating, Morningglory): 70%
- pest or weed control at 125 g/ha ([11]; pre-emergence, Preemergence, scale 0 to 100 (0 no effect, 100 complete control), read-out: Plant response rating, Morningglory): 0%
- pest or weed control at 500 g/ha ([11]; pre-emergence, Preemergence, scale 0 to 100 (0 no effect, 100 complete control), read-out: Morningglory plant response rating): 0%
- pest or weed control at 1000 g/ha [12]: 0%
- pest or weed control at 1000 g/ha [13]: 0%
- plant injury at 1000 g/ha [14]: 0%
- pest or weed control at 1000 g/ha [15]: 0%
- pest or weed control at 125 g/ha ([16]; 125 g ai/ha, scale 0 to 100 (0 no effect, 100 complete control), read-out: Blackgrass plant response rating): 0%
- pest or weed control at 500 g/ha ([16]; 500 g ai/ha, scale 0 to 100, read-out: Plant response rating, Blackgrass): 40%
- pest or weed control at 125 g/ha ([17]; 125 g ai/ha, scale 0 to 100 (0 no effect, 100 complete control), read-out: Oat, Wild plant response rating): 0%
- pest or weed control at 500 g/ha ([17]; 500 g ai/ha, scale 0 to 100, read-out: Plant response rating, Oat, Wild): 40%
